Experimental data as given in patent US10988477B2 (Merck Patent GmbH, priority 2018, dated 2021).

molecular target: GCN2 kinase (Homo sapiens, UniProt Q9P2K8); assay: GCN2 enzyme inhibition assay (Transcreener ADP2 fluorescence polarization); assay type: biochemical; conditions: Enzyme activity for compounds of Formula IV; Ki(app), 280 μM ATP, 25° C.
Experimental: Compounds were screened for their ability to inhibit GCN2 kinase activity using a Transcreener® ADP^2 fluorescence polarization assay that detects ADP levels (BellBrook Labs, WI). Assays were carried out in a buffer consisting of 25 mM Tris-HCl (pH 7.5), 50 mM NaCl, 10 mM MgCl2 and 1 mM DTT. Final substrate concentrations were 280 μM ATP and 200 μM peptidic substrate ([…]-OH [(RS)7], Bachem, Switzerland). Assays were carried out at 25° C. in the presence of a (typical) final concentration of 4 nM GCN2 kinase. An assay buffer containing GCN2 kinase and (RS)7 was prepared. 4.7 μL of this stock solution was placed per well of a black, low volume, 384-well microtitre plate (e.g. catalogue number 3676, Corning Inc., NY). To this was added […] of DMSO containing serial dilutions of the test compound (typical final concentrations of test compound were 0 to 8 μM). The plate was incubated for 10 minutes at 25° C. prior to the addition of 4.7 μL of ATP stock buffer to initiate the enzyme reaction. The reaction was allowed to proceed for 1 hour at 25° C., prior to the addition of 10 μL detection buffer (consisting of appropriate concentrations of ADP^2 antibody and ADP Alexa633 tracer in 1× stop and detect buffer as supplied by BellBrook Labs). […] Percentage inhibition of enzyme activity was then calculated at each compound dose. IC50 and Ki(app) (using known assay and kinetic parameters) values were calculated from percentage inhibition data using a non-linear, tight-binding algorithm. All data analysis was undertaken using the Screener® software package (Genedata, Switzerland).

Chain of GCN2 kinase (Q9P2K8 whole entry): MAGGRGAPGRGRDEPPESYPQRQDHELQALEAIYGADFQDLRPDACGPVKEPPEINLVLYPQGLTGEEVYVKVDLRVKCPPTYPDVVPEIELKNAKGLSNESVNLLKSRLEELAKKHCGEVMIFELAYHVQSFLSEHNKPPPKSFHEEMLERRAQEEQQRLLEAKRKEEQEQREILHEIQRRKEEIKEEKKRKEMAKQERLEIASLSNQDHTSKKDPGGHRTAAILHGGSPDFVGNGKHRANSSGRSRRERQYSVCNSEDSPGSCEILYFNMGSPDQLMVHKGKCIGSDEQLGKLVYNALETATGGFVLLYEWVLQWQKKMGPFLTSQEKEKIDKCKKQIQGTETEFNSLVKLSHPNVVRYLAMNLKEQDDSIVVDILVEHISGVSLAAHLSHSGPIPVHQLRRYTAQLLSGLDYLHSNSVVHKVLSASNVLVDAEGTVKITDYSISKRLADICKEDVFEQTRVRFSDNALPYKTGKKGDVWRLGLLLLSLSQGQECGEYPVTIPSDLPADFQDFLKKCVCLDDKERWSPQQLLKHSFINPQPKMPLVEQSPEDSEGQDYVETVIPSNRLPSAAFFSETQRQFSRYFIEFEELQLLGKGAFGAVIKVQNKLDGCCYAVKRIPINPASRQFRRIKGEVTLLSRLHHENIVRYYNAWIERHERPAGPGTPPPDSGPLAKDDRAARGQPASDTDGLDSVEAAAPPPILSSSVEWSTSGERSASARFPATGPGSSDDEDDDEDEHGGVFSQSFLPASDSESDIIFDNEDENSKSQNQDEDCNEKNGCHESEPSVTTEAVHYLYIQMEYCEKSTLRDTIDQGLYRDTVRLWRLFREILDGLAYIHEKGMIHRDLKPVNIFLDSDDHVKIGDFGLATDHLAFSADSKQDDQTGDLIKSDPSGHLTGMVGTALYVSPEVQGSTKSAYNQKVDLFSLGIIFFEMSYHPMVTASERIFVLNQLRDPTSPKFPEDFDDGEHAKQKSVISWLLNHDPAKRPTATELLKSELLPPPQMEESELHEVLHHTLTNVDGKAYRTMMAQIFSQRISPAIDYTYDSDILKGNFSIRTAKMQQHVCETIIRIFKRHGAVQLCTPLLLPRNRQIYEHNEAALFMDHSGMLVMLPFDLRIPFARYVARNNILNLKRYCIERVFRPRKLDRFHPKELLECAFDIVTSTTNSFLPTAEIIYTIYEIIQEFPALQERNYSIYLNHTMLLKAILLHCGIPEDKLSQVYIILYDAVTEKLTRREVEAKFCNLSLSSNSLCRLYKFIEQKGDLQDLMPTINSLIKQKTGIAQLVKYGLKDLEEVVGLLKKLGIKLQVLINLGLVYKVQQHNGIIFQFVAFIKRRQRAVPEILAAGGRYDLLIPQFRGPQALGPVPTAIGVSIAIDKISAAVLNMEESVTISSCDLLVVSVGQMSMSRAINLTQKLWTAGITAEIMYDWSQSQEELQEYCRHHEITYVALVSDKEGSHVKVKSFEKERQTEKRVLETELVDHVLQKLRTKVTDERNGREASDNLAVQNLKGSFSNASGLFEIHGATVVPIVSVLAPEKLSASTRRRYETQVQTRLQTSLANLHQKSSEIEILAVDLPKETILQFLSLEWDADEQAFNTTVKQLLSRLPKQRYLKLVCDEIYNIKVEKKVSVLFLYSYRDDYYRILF

Ki	Structure (SMILES)
10 to 100 nM	CC1CC(C(N)=O)CN(c2ccnc(-c3cnc4cnc(C(F)F)cn34)n2)C1 (mixture of isomers) [IV-107, 1-(2-(6-(Difluoromethyl)imidazo[1,2-a]pyrazin-3-yl)pyrimidin-4-yl)-5-methylpiperidine-3-carboxamide]
< 10 nM	C[C@H]1[C@@H](c2cn[nH]c2)OCCN1c1ccnc(-c2cnc3cnc(Cl)cn23)n1 (racemic) [IV-235, Cis-4-(2-(6-Chloroimidazo[1,2-a]pyrazin-3-yl)pyrimidin-4-yl)-3-methyl-2-(1H-pyrazol-4-yl)morpholine]
10 to 100 nM	C[C@H]1[C@H](c2cn[nH]c2)OCCN1c1ccnc(-c2cnc3cnc(Cl)cn23)n1 (racemic) [IV-236, Trans-4-(2-(6-Chloroimidazo[1,2-a]pyrazin-3-yl)pyrimidin-4-yl)-3-methyl-2-(1H-pyrazol-4-yl)morpholine]
10 to 100 nM	C[C@H]1[C@H](c2cn[nH]c2)OCCN1c1ccnc(-c2cnc3cnc(C#N)cn23)n1 (racemic) [IV-281, Trans-3-(4-(3-Methyl-2-(1H-pyrazol-4-yl)morpholino)pyrimidin-2-yl)imidazo[1,2-a]pyrazine-6-carbonitrile]
< 10 nM	C[C@H]1[C@@H](c2cn[nH]c2)OCCN1c1ccnc(-c2cnc3cnc(Br)cn23)n1 (racemic) [IV-306, Cis-4-(2-(6-Bromoimidazo[1,2-a]pyrazin-3-yl)pyrimidin-4-yl)-3-methyl-2-(1H-pyrazol-4-yl)morpholine]
10 to 100 nM	C[C@H]1[C@H](c2cn[nH]c2)OCCN1c1ccnc(-c2cnc3cnc(Br)cn23)n1 (racemic) [IV-312, Trans-4-(2-(6-Bromoimidazo[1,2-a]pyrazin-3-yl)pyrimidin-4-yl)-3-methyl-2-(1H-pyrazol-4-yl)morpholine]
100 to 1000 nM	C[C@H]1NCCN(c2ccnc(-c3cnc4cnc(Br)cn34)n2)[C@H]1c1cn[nH]c1 (racemic) [IV-342, Cis-6-Bromo-3-(4-(3-methyl-2-(1H-pyrazol-4-yl)piperazin-1-yl)pyrimidin-2-yl)imidazo[1,2-a]pyrazine]
< 10 nM	C[C@H]1CN(c2ccnc(-c3cnc4cnc(C(F)(F)F)cn34)n2)C[C@@H](c2c[nH]cn2)O1 (racemic) [IV-380, Cis-2-(1H-Imidazol-4-yl)-6-methyl-4-(2-(6-(trifluoromethyl)imidazo[1,2-a]pyrazin-3-yl)pyrimidin-4-yl)morpholine]
10 to 100 nM	C[C@@H]1CN(c2ccnc(-c3cnc4cnc(C(F)(F)F)cn34)n2)C[C@@H](c2c[nH]cn2)O1 (racemic) [IV-381, Trans-2-(1H-Imidazol-4-yl)-6-methyl-4-(2-(6-(trifluoromethyl)imidazo[1,2-a]pyrazin-3-yl)pyrimidin-4-yl)morpholine]
10 to 100 nM	CS(C)(=O)=N[C@@H]1C[C@H](c2cn[nH]c2)CN(c2ccnc(-c3cnc4cnc(C(F)(F)F)cn34)n2)C1 (racemic) [IV-395]
< 10 nM	C[C@H]1[C@@H](C(N)=O)CCCN1c1ccnc(-c2cnc3cnc(C(F)(F)F)cn23)n1 (racemic) [IV-453, Cis-2-Methyl-1-(2-(6-(trifluoromethyl)imidazo[1,2-a]pyrazin-3-yl)pyrimidin-4-yl)piperidine-3-carboxamide]
100 to 1000 nM	C[C@@H]1CN(c2ccnc(-c3cnc4cnc(C(F)(F)F)cn34)n2)C[C@H](c2ccnn2C)N1 (racemic) [IV-667, Cis-3-(4-(3-Methyl-5-(1-methyl-1H-pyrazol-5-yl)piperazin-1-yl)pyrimidin-2-yl)-6-(trifluoromethyl)imidazo[1,2-a]pyrazine]
100 to 1000 nM	C[C@@H]1CN(c2ccnc(-c3cnc4cnc(C(F)(F)F)cn34)n2)C[C@H](c2cncn2C)N1 (racemic) [IV-672, Cis-3-(4-(3-Methyl-5-(1-methyl-1H-imidazol-5-yl)piperazin-1-yl)pyrimidin-2-yl)-6-(trifluoromethyl)imidazo[1,2-a]pyrazine]
10 to 100 nM	C[C@H]1NCCN(c2ccnc(-c3cnc4cnc(C(F)(F)F)cn34)n2)[C@H]1c1cn[nH]c1 (relative stereo) [IV-208, Cis-3-(4-(3-Methyl-2-(1H-pyrazol-4-yl)piperazin-1-yl)pyrimidin-2-yl)-6-(trifluoromethyl)imidazo[1,2-a]pyrazine]
< 10 nM	CCN1CCN(c2ccnc(-c3cnc4cnc(Br)cn34)n2)[C@@H](C)[C@H]1c1cn[nH]c1 (relative stereo) [IV-390, Cis-6-Bromo-3-(4-(4-ethyl-2-methyl-3-(1H-pyrazol-4-yl)piperazin-1-yl)pyrimidin-2-yl)imidazo[1,2-a]pyrazine]
100 to 1000 nM	C[C@@H]1[C@H](c2cn[nH]c2)N(c2ccnc(-c3cnc4cnc(Br)cn34)n2)CCN1C (relative stereo) [IV-393, Cis-6-Bromo-3-(4-(3,4-dimethyl-2-(1H-pyrazol-4-yl)piperazin-1-yl)pyrimidin-2-yl)imidazo[1,2-a]pyrazine]
100 to 1000 nM	C[C@H]1NCCN(c2ccnc(-c3cnc4cnc(C5CC5)cn34)n2)[C@H]1c1cn[nH]c1 (relative stereo) [IV-412, Cis-6-Cyclopropyl-3-(4-(3-methyl-2-(1H-pyrazol-4-yl)piperazin-1-yl)pyrimidin-2-yl)imidazo[1,2-a]pyrazine]

same assay, conditions: compounds of Formula II; 280 μM ATP, 4 nM GCN2 kinase

Ki	Structure (SMILES)
10 to 1000 nM	FC(F)c1ccc2ncc(-c3ccnc(N4CCCNCC4)c3)n2n1
10 to 1000 nM	CS(=O)(=O)NCC1CC(C#N)CN(c2cc(-c3cnc4ccc(C(F)F)nn34)ncn2)C1 (centres unmarked) [listing 1 of 3 here]
10 to 1000 nM	CS(=O)(=O)NCC1CC(C#N)CN(c2cc(-c3cnc4ccc(C(F)F)nn34)ncn2)C1 (centres unmarked) [listing 2 of 3 here]
< 10 nM	CS(=O)(=O)NCC1CC(C#N)CN(c2cc(-c3cnc4ccc(C(F)F)nn34)ncn2)C1 (centres unmarked) [listing 3 of 3 here]
< 10 nM	CC1C(CNS(C)(=O)=O)OCCN1c1cc(-c2cnc3ccc(C(F)F)nn23)ncn1 (single isomer, unassigned) [II-371, N-((4-(6-(6-(Difluoromethyl)imidazo[1,2-b]pyridazin-3-yl)pyrimidin-4-yl)-3-methylmorpholin-2-yl)methyl)methanesulfonamide]
< 10 nM	CC1C(CNS(C)(=O)=O)C(F)(F)C(C)CN1c1cc(-c2cnc3ccc(C(F)F)nn23)ncn1 (single isomer, unassigned) [II-467, N-((1-(6-(6-(Difluoromethyl)imidazo[1,2-b]pyridazin-3-yl)pyrimidin-4-yl)-4,4-difluoro-2,5-dimethylpiperidin-3-yl)methyl)methanesulfonamide]
10 to 1000 nM	CC1C(CNS(C)(=O)=O)C(F)(F)C(C)CN1c1cc(-c2cnc3ccc(C(F)F)nn23)ncn1 (single isomer, unassigned) [II-468, N-((1-(6-(6-(Difluoromethyl)imidazo[1,2-b]pyridazin-3-yl)pyrimidin-4-yl)-4,4-difluoro-2,5-dimethylpiperidin-3-yl)methyl)methanesulfonamide]
10 to 1000 nM	CS(=O)(=O)C1CCCN(c2cc(-c3cnc4ccc(C(F)F)nn34)ncn2)C1 (single isomer, unassigned) [II-530, 6-(Difluoromethyl)-3-(6-(3-(methylsulfonyl)piperidin-1-yl)pyrimidin-4-yl)imidazo[1,2-b]pyridazine]
10 to 1000 nM	N#CCC1CN(c2cc(-c3cnc4ccc(C(F)F)nn34)ncn2)CCO1 (single isomer, unassigned) [II-564, 2-(4-(6-(6-(Difluoromethyl)imidazo[1,2-b]pyridazin-3-yl)pyrimidin-4-yl)morpholin-2-yl)acetonitrile]
10 to 1000 nM	N#CCC1CN(c2cc(-c3cnc4ccc(C(F)F)nn34)ncn2)CCO1 (single isomer, unassigned) [II-565, 2-(4-(6-(6-(Difluoromethyl)imidazo[1,2-b]pyridazin-3-yl)pyrimidin-4-yl)morpholin-2-yl)acetonitrile]
10 to 1000 nM	CC1C(N=S(C)(C)=O)CCCN1c1cc(-c2cnc3ccc(C(F)F)nn23)ncn1 (single isomer, unassigned) [II-581, ((1-(6-(6-(Difluoromethyl)imidazo[1,2-b]pyridazin-3-yl)pyrimidin-4-yl)-2-methylpiperidin-3-yl)imino)dimethyl-λ^6-sulfanone]
> 1000 nM	CC1C(N=S(C)(C)=O)CCCN1c1cc(-c2cnc3ccc(C(F)F)nn23)ncn1 (single isomer, unassigned) [II-582, ((1-(6-(6-(Difluoromethyl)imidazo[1,2-b]pyridazin-3-yl)pyrimidin-4-yl)-2-methylpiperidin-3-yl)imino)dimethyl-λ^6-sulfanone]
< 10 nM	C[C@@H]1C[C@H](CO)[C@H](C)N(c2cc(-c3cnc4ccc(C(F)F)nn34)ncn2)C1 (single isomer, unassigned) [II-585]
10 to 1000 nM	CC1CC(CO)C(C)N(c2cc(-c3cnc4ccc(C(F)F)nn34)ncn2)C1 (single isomer, unassigned) [II-586, (1-(6-(6-(Difluoromethyl)imidazo[1,2-b]pyridazin-3-yl)pyrimidin-4-yl)-2,5-dimethylpiperidin-3-yl)methanol]

same assay, conditions: compounds of Formula V; 280 μM ATP, 4 nM GCN2 kinase

Ki	Structure (SMILES)
100 to 1000 nM	CP(C)(=O)C1CC(c2cn[nH]c2)CN(c2ccnc(-c3cnc4sc(C(F)(F)F)cn34)n2)C1 (racemic) [Compound V-6, 5-[4-[3-Dimethylphosphoryl-5-(1H-pyrazol-4-yl)-1-piperidyl]pyrimidin-2-yl]-2-(trifluoromethyl)imidazo[2,1-b]thiazole]
